In a melting point compilation (Tetko et al.; mined from patent text by program, amines drawn as free bases though some values may be those of a salt):

SMILES	melting point
CCOC(=O)NN=C(c1cccnc1)C1COCOC1	132 °C
CN1CCC(C2(O)c3cc(F)ccc3CCc3cccnc32)CC1 (centres undefined)	126 to 127 °C
Cc1ccc2cccc(OCc3c(Cl)ccc(S(=O)(=O)N4CCC[C@H]4C(=O)NCCCNC(=O)c4ccc(C#N)cc4)c3Cl)c2n1	78 to 80 °C
OC1CCc2c(Cl)cc(Cl)cc2C1 (centres undefined)	84 to 86 °C
COCCOc1ccc(COC(C)=O)c(Oc2ncc(C(F)(F)F)cc2Cl)c1	52.5 to 53 °C
COC(=O)c1cc(C(=O)O)nc2cc(Cl)cc(Cl)c12	169 to 171 °C
O=C1CCN(C(=O)c2ccc(Cl)cc2Cl)c2c(Cl)cccc21	157 to 159 °C
C(=C(c1ccccc1)c1ccccc1)c1ccc2c(c1)Cc1ccccc1-2	136 to 138 °C
N#Cc1ccc2cc(O)ccc2c1	160 to 164 °C
CCS(=O)(=O)c1nsc(NC(=O)NC)c1C(N)=O	219 to 220 °C
COc1cc2c(cc1Br)CC=C2CCNC(=O)C(F)(F)F	126 to 129 °C
CC(C)Oc1cc(N2C(=O)C3CCCCN3C2=O)c(F)cc1Cl (centres undefined)	60.5 to 64.5 °C
COCCN1CCN(C)c2cc(Nc3ncc(Cl)c(N[C@@H]4CCCC[C@H]4NS(C)(=O)=O)n3)c(OC)cc2C1	89 °C
CC(C)(C)OC(=O)N1CCN(CC(O)COc2ccc(CC#N)cc2)CC1 (centres undefined)	98 to 100 °C
COC(=O)c1scc(Cl)c1N	62 to 64 °C
CC(=O)NNc1ccc(NC(=S)Nc2ccc(NNC(C)=O)cc2)cc1	234 to 236 °C
CNC1CN(c2cc3c(cc2F)c(=O)c(C(=O)O)cn3C2CC2)C1	245 to 249 °C
O=C1C2=CC=CCC2C(O)N1CCN1CCC(c2noc3cc(F)ccc23)CC1 (centres undefined)	172 to 173 °C
Nc1nc2cccnc2c2c1nc(CCO)n2CC1(O)CCOCC1	226 to 227 °C
O=S(=O)(Cl)Cc1csc(-c2ccc(Cl)c(Cl)c2)n1	124 to 127 °C
O=c1[nH]ncc2c1c(O)nc1cc(Cl)cc(Cl)c12	> 350 °C

SMILES	melting point
COc1ccc(C2NC(=S)NC(C)=C2C(C)=O)cc1 (racemic)	175 °C
COC(=O)c1sc2ccc(C#N)cc2c1N	248 °C
CCOC(=O)c1ccc(C=C(C)c2ccc3c(c2)SCCC3(C)C)cc1	64 to 65 °C
CC(/C=C/CN1CCc2cc3c(cc21)C(C)(C)CCC3(C)C)=C\C(=O)O	170 to 171 °C
CN1CCN(c2ccc3cn[nH]c3n2)CC1	196 to 197 °C
N=C(N)NCCc1ccc(OCCC(c2ccc(Cl)cc2)(c2ccc(Cl)cc2)c2ccc(Cl)cc2)cc1	146 to 150 °C
CN1Cc2c(Br)ncn2-c2ccc(F)cc2C1=O	200 °C
CCCCCCCCCCCCCCOCC(CI)(CI)COCCCCCCCCCCCCCC	27 to 28 °C
Cc1cc(C(=O)NC2CC2)ccc1N1CCN(Cc2cnc3c(c2)NC(=O)[C@@H]2CCCN32)CC1	227 to 234 °C
N#Cc1c(Cl)c(Cl)n(O)c1-c1ccc(Cl)cc1	156 °C
COc1ccccc1CC(C)NCC(O)c1cccc(Cl)c1 (centres undefined)	85 to 87 °C
Cc1ccc2c(n1)C(=O)C(N)=C(Cl)C2=O	270 °C
CCOC(=O)C(=CNc1csnn1)C(=O)c1cc(F)c(F)cc1F	104 to 106 °C
Nc1ccc(Nc2cc3c(cc2Nc2ccc(N)cc2)C(=O)NC3=O)cc1	154 to 157 °C
COc1cc2cnnc(N3CCC(CCN(C)C(=O)N(C)C)CC3)c2cc1OC	140 to 141 °C
CC(C)S(=O)(=O)c1ccc2c(c1)nc(CC1(C)CCCC1)n2CC1CC1	122 °C
Oc1cc(Br)c2oc(-c3cc(F)c(O)c(F)c3)nc2c1	270 to 272 °C
O=C(O)c1cc(Cl)ccc1OC1CCOC1=O (centres undefined)	159 to 160 °C
COC(=O)c1c(S(N)(=O)=O)ccn1C	105 to 107 °C
Fc1ccc2[nH]cc(C3CCC4(CC3)OCCO4)c2c1	183 to 185 °C
O=C(O)CCNC(=O)C(CS)C(F)(F)F (centres undefined)	108 to 110 °C

The next lines start with the values.

melting point	SMILES
49 to 52 °C	CCOC(=O)C=Cc1ccc(OC)nc1
260 °C	O=C1CCCC2=C1C(c1ccc(S(=O)(=O)c3ccccc3)cc1)C1=C(CCCC1=O)N2
218 to 220 °C	CNC(=O)N1CCSC1c1ccc(O)cc1 (centres undefined)
156 °C	CCC(=O)Oc1cc(OC)cc(OC)c1C(=O)C=Cc1ccc(C)cc1
230 °C	Cc1ccnc(N2CCN(CCc3c(C)n4c5c(cc([N+](=O)[O-])cc35)CCC4)CC2)c1
120 to 122 °C	COc1cccc(N2CC(=O)N(C)C(=O)N2)c1
186 °C	Cc1ccc(CC2CCN(C(=O)C(=O)Nc3ccc4c(c3)CS(=O)(=O)N4)CC2)cc1
110 °C	CCOc1c(CCl)c(CCl)c(OCC)c2ccccc12
104 to 106 °C	Nc1ccc(NCC(F)(F)F)c([N+](=O)[O-])c1
168 to 170 °C	CS(=O)c1n[nH]c2ccc(C(F)(F)F)cc12 (centres undefined)
235 to 237 °C	Cc1nc(-n2ccc(-c3ccccc3)cc2=O)sc1C(=O)NCc1ccccc1
302 to 305 °C	NC(=O)Cc1nn(-c2ccccn2)c2[nH]c3ccccc3c(=O)c12
163 to 164 °C	CCOC(=O)C1=C(COCC(C)(O)Cc2ccccn2)NC(C)=C(C(=O)OC)C1c1cccc(Cl)c1Cl (centres undefined)
138 °C	O=C(NN=Cc1ccnc2ccccc12)C1CCC1
145 to 146 °C	Cc1onc(-c2ccccc2)c1-c1cc2ccccc2[nH]1
142 to 143 °C	CCCc1nc(S)nn1-c1ccccc1
72 to 73 °C	CCOC(=O)C(C)c1ccc(-c2ccc(F)cc2F)c(O)c1 (centres undefined)
263 to 265 °C	O=C(O)CNC(=O)c1ccc(C(=O)NS(=O)(=O)c2ccc(C(=O)NCCc3ccccc3)cc2)cn1
97 to 98 °C	COc1cc(-c2ccc(F)cc2)nc(-c2ccccn2)n1
82 °C	OCCCOc1cccc2sccc12
188 °C	O=C(CN1CCCC1)Nc1ccc(-c2cc(-c3c[nH]nc3-c3ccccn3)ccn2)cc1

melting point	SMILES
77 to 78 °C	CN1C(=O)O[C@@H](c2ccc(F)cc2)[C@H]1Cc1ccc(C(F)(F)F)cc1 (racemic)
145 °C	CC(=O)[C@H]1C[C@H](C(=O)OC(C)(C)C)N(C(=O)CNC(=O)Nc2cccc(C(=O)O)c2)[C@@H]1c1ccccc1 (racemic)
166 to 167 °C	O=C(OCc1ccccc1)N1CCc2c(sc3nc(CCl)c(Cl)c(-c4ccc(OCC(F)(F)F)cc4)c23)C1
140 to 144 °C	COC(=O)CCCc1cc2nc(Cl)ccc2n1S(=O)(=O)c1cccc(-c2ccnc(C)n2)c1
97 °C	CCOC(=O)c1cc(C)cc([N+](=O)[O-])c1O
71 to 73 °C	COc1cc(N)c(Cl)cc1C(=O)NCC1CCN(CCCCOc2ccccc2)CC1
262 °C	Cc1[nH]c(=O)n(C2CCCCC2)c1-c1ccc(OCc2ccccc2)cc1
203 to 204 °C	O=C(CCl)Nc1ccc2c(c1NC(=O)c1ccccc1)C(=O)c1ccccc1C2=O
100 °C	CCOC(=O)c1ccc(-n2ccnc2)cc1
86 to 88 °C	COC(=O)COc1ccc(OCCC2CCN(c3ccncc3)CC2)cc1
88.5 to 89.7 °C	CC(=O)Oc1ccccc1C(=O)Nc1cccc(F)c1
100 °C	CCCC(=O)NCC1CCc2c(OC)ccc3cccc1c23 (centres undefined)
179 to 180 °C	CCOc1cnccc1-c1nc2n(C3CCCC3)[nH]c(CC)c-2c(=O)n1
154 to 156 °C	O=c1ccccn1CC1(O)CCN(Cc2ccc(F)cc2)CC1
60 to 62 °C	Cc1nccn1C[Si](C)(C)Cc1ccc(F)cc1
190 °C	CC(C)(C)OC(=O)CCP(Br)(c1ccccc1)(c1ccccc1)c1ccccc1
198 to 199 °C	O=C(O)c1cc(Cl)nn1-c1ncccc1Cl
103 to 106 °C	CC(C)[N+]([O-])=Cc1cccc(N)c1
141 to 143 °C	O=C(O)c1ccc(NCCCCCc2ccccc2)cc1
187 to 189 °C	CC(C)(C)c1cc(C(=O)Nc2ccccc2NC(=O)N(Cc2ccccc2)Cc2ccccc2)cc(C(C)(C)C)c1O
208 to 209 °C	CCCC(=O)c1cc2c(=O)c(C(=O)O)cn(CC)c2cc1C

melting point	SMILES
155 to 156 °C	CCc1cccc(CC(=O)O)c1OCCCc1cn(-c2ccc(C(F)(F)F)cn2)nc1C(C)C
250 to 253 °C	COC(=O)c1ccc2[nH]c(C#N)c(-c3ccccc3)c2c1
175 to 177 °C	CCn1cc(C(=O)NCCc2ccncc2)c(=O)c2cnc(N3CCCC3)nc21
114 °C	C=CCOc1ccc(C=Cc2ccc([N+](=O)[O-])cc2)cc1
190 °C	C[C@H]1Cn2c(=O)[nH]c3cccc(c32)CN1
184 to 186 °C	Cc1noc(C=Cc2ccccc2O)n1
129 to 131 °C	CC(C)c1nc2ccccc2c(-c2ccc(F)cc2)c1/C=C/I
176 °C	O=C(O)C(O)CSc1ccc(-c2ccccc2)cc1 (centres undefined)
128 to 130 °C	NCCCCc1cccc(C2=NNC(=O)CC2)c1
72.5 to 74.5 °C	CSCCOc1ccccc1NN
92 °C	CCn1nc(Br)c([N+](=O)[O-])c1NCc1ccccc1
143 to 144 °C	O=C1N(Cc2cnccn2)c2ccccc2C12COc1cc3c(cc12)CCO3 (centres undefined)
187 to 188 °C	COc1cc(NC(=O)OCC2c3ccccc3-c3ccccc32)ccc1C=O
129 to 130 °C	Cc1ccc2c(c1)C(C(=O)Nc1ccccc1)c1ccccc1CO2 (centres undefined)
190 °C	O=C1C=C(c2ccc(F)cc2)CN1
216 to 218 °C	O=C1Nc2cccnc2N(C(=O)CCCl)c2ccccc21
77 to 79 °C	CCCCCCCCCCCCc1cnn(C(C(=O)Nc2c(OC)cc(OC)cc2OC)c2ccccc2)c1 (centres undefined)
121 to 122 °C	COc1cc(C(=O)NCCc2ccccc2)cc([N+](=O)[O-])c1OC
118 to 120 °C	COc1ccccc1CC(O)(c1ccccc1)C1CCN(CCCC(=O)c2ccc(C(C)(C)C)cc2)CC1 (centres undefined)
106 to 109 °C	COc1cc(-c2ccc(C)cc2)c(C(C)=NOCc2ccc([N+](=O)[O-])cc2)cc1O
